Test results from patent publication US11053242B2, “[9,10-dimethoxy-3-(2-methylpropyl)-1H,2H,3H,4H,6H,7H,11BH-pyrido-[2,1-a]isoquinolin-2-yl]methanol and compounds, compositions and methods relating thereto” (Neurocrine Biosciences, Inc., priority 2015, dated 2021).

Key:
[1] = target: VMAT2 (human platelet homogenate) (Homo sapiens (Human), UniProt Q05940); test: Human VMAT2 Ki, slightly modified competition binding procedure (Table 11); conditions: 10 nM 3H-dihydrotetrabenazine;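 further: competition binding with 90 min incubation at 25 °C, after which filter-retained radioligand was measured by scintillation counting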
Chain of VMAT2 (human platelet homogenate) (Q05940 whole entry): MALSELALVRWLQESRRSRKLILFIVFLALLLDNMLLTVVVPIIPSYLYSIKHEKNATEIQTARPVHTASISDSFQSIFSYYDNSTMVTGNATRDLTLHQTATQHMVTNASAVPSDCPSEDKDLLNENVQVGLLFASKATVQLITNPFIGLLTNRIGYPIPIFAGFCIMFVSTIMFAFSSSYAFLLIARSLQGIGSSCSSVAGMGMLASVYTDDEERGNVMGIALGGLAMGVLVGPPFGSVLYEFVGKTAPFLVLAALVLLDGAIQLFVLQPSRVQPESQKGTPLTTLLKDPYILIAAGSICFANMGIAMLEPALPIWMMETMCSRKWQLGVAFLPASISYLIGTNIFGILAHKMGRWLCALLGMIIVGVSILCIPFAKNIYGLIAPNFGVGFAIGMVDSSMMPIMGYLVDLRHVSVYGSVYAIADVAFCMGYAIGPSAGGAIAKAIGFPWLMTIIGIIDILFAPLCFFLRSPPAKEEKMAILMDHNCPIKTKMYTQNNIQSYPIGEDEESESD
Procedure: Following incubation at 25° C. for 90 minutes, bound radioligand was collected by rapid filtration onto GF/B glass fiber filters using a Unifilter-96 Harvester (PerkinElmer). Filter plates were pre-treated with 0.1% polyethylenimine and allowed to dry overnight, and following harvesting the filter plates were washed with 800 d VMAT2 binding buffer. Bound radioligand was quantified by scintillation counting using a Topcount NXT (PerkinElmer).

[2] = In vitro human intestinal S9 hydrolysis assay (formation of compound 1-1); conditions: human intestinal S9, 1 uM, 37° C., up to 60 minutes
Procedure: Compounds (1 uM) were incubated with pooled intestinal S9 subcellular preparations (0.5 mg/mL total protein) from SD rats and humans without the addition of protease inhibitor phenylmethylsulfonylflouride. Incubations were carried out in a potassium phosphate buffer (50 mM). All concentrations were relative to the final incubation volume of 125 uL. Incubations were conducted at 37° C. for 0, 5, 10, 20, 40 and 60 minutes in a water bath and terminated by rapid mixing with 150 uL of ice-cold acetonitrile containing 1% formic acid. Internal standard was added and proteins were precipitated and removed by centrifugation prior to LC/MS analysis.

With `COc1cc2c(cc1OC)[C@H]1C[C@@H](COC(=O)N3CC4CCC(C3)N4)[C@H](CC(C)C)CN1CC2` [Compound 6-4, [(2R,3S,11bR)-9,10-dimethoxy-3-(2-methylpropyl)-1H,2H,3H,4H,6H,7H,11bH-pyrido[2,1-a]isoquinolin-2-yl]methyl 3,8-diazabicyclo[3.2.1]octane-3-carboxylate] the Ki [1] was under 10 nM and the “S9 Assay (ability to form compound 1-1)” value [2] was “+”.
With `COc1cc2c(cc1OC)[C@H]1C[C@@H](COC(=O)NC3(C(=O)O)CCCCC3)[C@H](CC(C)C)CN1CC2` [Compound 5-23, l-[({[(2R,3S,11bR)-9,10-dimethoxy-3-(2-methylpropyl)-1H,2H,3H,4H,6H,7H,11bH-pyrido[2,1-a]isoquinolin-2-yl]methoxy}carbonyl)amino]cyclohexane-1-carboxylic acid] the Ki [1] was 10 to 500 nM and the “S9 Assay (ability to form compound 1-1)” value [2] was “++”.
With `COc1cc2c(cc1OC)[C@H]1C[C@@H](COC(=O)[C@@H]3CCCNC3)[C@H](CC(C)C)CN1CC2` [Compound 4-29, [(2R,3S,11bR)-9,10-dimethoxy-3-(2-methylpropyl)-1H,2H,3H,4H,6H,7H,11bH-pyrido[2,1-a]isoquinolin-2-yl]methyl (3R)-piperidine-3-carboxylate] the Ki [1] was under 10 nM and the “S9 Assay (ability to form compound 1-1)” value [2] was “+++”.
With `COc1cc2c(cc1OC)[C@H]1C[C@@H](COC(=O)C3CCN(C)CC3)[C@H](CC(C)C)CN1CC2` [Compound 2-25, [(2R,3S,11bR)-9,10-dimethoxy-3-(2-methylpropyl)-1H,2H,3H,4H,6H,7H,11bH-pyrido[2,1-a]isoquinolin-2-yl]methyl 1-methylpiperidine-4-carboxylate] the Ki [1] was under 10 nM and the “S9 Assay (ability to form compound 1-1)” value [2] was “+++”.
In the case of `COc1cc2c(cc1OC)[C@H]1C[C@@H](COC(=O)CC3CCN(C)C3)[C@H](CC(C)C)CN1CC2` (stereo partly drawn) [Compound 2-10, [(2R,3S,11bR)-9,10-dimethoxy-3-(2-methylpropyl)-1H,2H,3H,4H,6H,7H,11bH-pyrido[2,1-a]isoquinolin-2-yl]methyl 2-(1-methylpyrrolidin-3-yl)acetate], the Ki [1] is reported as under 10 nM and the “S9 Assay (ability to form compound 1-1)” value [2] is reported as “+++”.
For `COc1cc2c(cc1OC)[C@H]1C[C@@H](COC(=O)C[C@@H]3CCCN3)[C@H](CC(C)C)CN1CC2` [Compound 4-36], the Ki [1] was under 10 nM and the “S9 Assay (ability to form compound 1-1)” value [2] was “+++”.
In the case of `COc1cc2c(cc1OC)[C@H]1C[C@@H](COC(=O)CC3CCCN3)[C@H](CC(C)C)CN1CC2` (stereo partly drawn) [Compound 4-28, [(2R,3S,11bR)-9,10-dimethoxy-3-(2-methylpropyl)-1H,2H,3H,4H,6H,7H,11bH-pyrido[2,1-a]isoquinolin-2-yl]methyl 2-(pyrrolidin-2-yl)acetate], the Ki [1] is reported as under 10 nM and the “S9 Assay (ability to form compound 1-1)” value [2] is reported as “++”.
With `COc1cc2c(cc1OC)[C@H]1C[C@@H](COC(=O)N(C)C(C(=O)O)C(C)C)[C@H](CC(C)C)CN1CC2` (stereo partly drawn) [Compound 5-32, 2-[({[(2R,3S,11bR)-9,10-dimethoxy-3-(2-methylpropyl)-1H,2H,3H,4H,6H,7H,11bH-pyrido[2,1-a]isoquinolin-2-yl]methoxy}carbonyl)(methyl)amino]-3-methylbutanoic acid] the Ki [1] was under 10 nM and the “S9 Assay (ability to form compound 1-1)” value [2] was “++”.
In the case of `COc1cc2c(cc1OC)[C@H]1C[C@@H](COC(=O)CCCC(=O)O)[C@H](CC(C)C)CN1CC2` [Compound 3-8, 5-{[(2R,3S,11bR)-9,10-dimethoxy-3-(2-methylpropyl)-1H,2H,3H,4H,6H,7H,11 bH-pyrido[2,1 a]isoquinolin-2-yl]methoxy}-5-oxopentanoic acid], the Ki [1] is reported as 10 to 500 nM and the “S9 Assay (ability to form compound 1-1)” value [2] is reported as “+++”.
In the case of `COc1cc2c(cc1OC)[C@H]1C[C@@H](COC(=O)N3CCOC(CC(=O)O)C3)[C@H](CC(C)C)CN1CC2` (stereo partly drawn) [Compound 5-6, 2-[4-({[(2R,3S,11bR)-9,10-dimethoxy-3-(2-methylpropyl)-1H,2H,3H,4H,6H,7H,11bH-pyrido[2,1-a]isoquinolin-2-yl]methoxy}carbonyl)morpholin-2-yl]acetic acid], the Ki [1] is reported as over 500 nM and the “S9 Assay (ability to form compound 1-1)” value [2] is reported as “+”.
In the case of `COc1cc2c(cc1OC)[C@H]1C[C@@H](COC(=O)[C@@H]3CCNC3)[C@H](CC(C)C)CN1CC2` [Compound 4-26, [(2R,3S,11bR)-9,10-dimethoxy-3-(2-methylpropyl)-1H,2H,3H,4H,6H,7H,11bH-pyrido[2,1-a]isoquinolin-2-yl]methyl (3R)-pyrrolidine-3-carboxylate], the Ki [1] is reported as under 10 nM and the “S9 Assay (ability to form compound 1-1)” value [2] is reported as “++”.
With `COc1cc2c(cc1OC)[C@H]1C[C@@H](COC(=O)C3CCNCC3)[C@H](CC(C)C)CN1CC2` [Compound 4-1, [(2R,3S,11bR)-9,10-dimethoxy-3-(2-methylpropyl)-1H,2H,3H,4H,6H,7H,11bH-pyrido[2,1-a]isoquinolin-2-yl]methyl piperidine-4-carboxylate] the Ki [1] was under 10 nM and the “S9 Assay (ability to form compound 1-1)” value [2] was “++”.
With `COc1cc2c(cc1OC)[C@H]1C[C@@H](COC(=O)N3C[C@@H]4C[C@H]3CN4)[C@H](CC(C)C)CN1CC2` [Compound 6-10, [(2R,3S,11bR)-9,10-dimethoxy-3-(2-methylpropyl)-1H,2H,3H,4H,6H,7H,11bH-pyrido[2,1-a]isoquinolin-2-yI]methyl (1S,4S)-2,5-diazabicyclo[2.2.1]heptane-2-carboxylate] the Ki [1] was under 10 nM and the “S9 Assay (ability to form compound 1-1)” value [2] was “+”.
For `COc1cc2c(cc1OC)[C@H]1C[C@@H](COC(=O)NCC(C)C(=O)O)[C@H](CC(C)C)CN1CC2` (stereo partly drawn) [Compound 5-57, 3-[({[(2R,3S,11bR)-9,10-dimethoxy-3-(2-methylpropyl)-1H,2H,3H,4H,6H,7H,11bH-pyrido[2,1-a]isoquinolin-2-yl]methoxy}carbonyl)amino]-2-methyIpropanoic acid], the Ki [1] was over 500 nM and the “S9 Assay (ability to form compound 1-1)” value [2] was “+”.
With `COc1cc2c(cc1OC)[C@H]1C[C@@H](COC(=O)N3C[C@@H](C)N[C@@H](C)C3)[C@H](CC(C)C)CN1CC2` [Compound 6-6, [(2R,3S,11bR)-9,10-dimethoxy-3-(2-methylpropyl)-1H,2H,3H,4H,6H,7H,11bH-pyrido[2,1-a]isoquinolin-2-yl]methyl (3R,5S)-3,5-dimethylpiperazine-1-carboxylate] the Ki [1] was under 10 nM and the “S9 Assay (ability to form compound 1-1)” value [2] was “+”.
With `COc1cc2c(cc1OC)[C@H]1C[C@@H](COC(=O)N(C)CC(=O)O)[C@H](CC(C)C)CN1CC2` [Compound 5-42, 2-[({[(2R,3S,11bR)-9,10-dimethoxy-3-(2-methylpropyl)-1H,2H,3H,4H,6H,7H,11bH-pyrido[2,1-a]isoquinolin-2-yl]methoxy}carbonyl)(methyl)amino]acetic acid] the Ki [1] was 10 to 500 nM and the “S9 Assay (ability to form compound 1-1)” value [2] was “++”.
In the case of `COc1cc2c(cc1OC)[C@H]1C[C@@H](COC(=O)C3CCNC3)[C@H](CC(C)C)CN1CC2` (stereo partly drawn) [Compound 4-8, [(2R,3S,11bR)-9,10-dimethoxy-3-(2-methylpropyl)-1H,2H,3H,4H,6H,7H,11bH-pyrido[2,1-a]isoquinolin-2-yl]methyl pyrrolidine-3-carboxylate], the Ki [1] is reported as under 10 nM and the “S9 Assay (ability to form compound 1-1)” value [2] is reported as “++”.
For `COc1cc2c(cc1OC)[C@H]1C[C@@H](COC(=O)N3CCC[C@@H](C(=O)O)C3)[C@H](CC(C)C)CN1CC2` [Compound 5-54, (3R)-1-({[(2R,3S,11bR)-9,10-dimethoxy-3-(2-methylpropyl)-1H,2H,3H,4H,6H,7H,11bH-pyrido[2,1-a]isoquinolin-2-yl]methoxy}carbonyl)piperidine-3-carboxylic acid], the Ki [1] was over 500 nM and the “S9 Assay (ability to form compound 1-1)” value [2] was “+”.
With `COc1cc2c(cc1OC)[C@H]1C[C@@H](COC(=O)C3(OC)CCNCC3)[C@H](CC(C)C)CN1CC2` [Compound 4-22, [(2R,3S,11bR)-9,10-dimethoxy-3-(2-methylpropyl)-1H,2H,3H,4H,6H,7H,11bH-pyrido[2,1-a]isoquinolin-2-yl]methyl 4-methoxypiperidine-4-carboxylate] the Ki [1] was under 10 nM and the “S9 Assay (ability to form compound 1-1)” value [2] was “++”.
In the case of `COc1cc2c(cc1OC)[C@H]1C[C@@H](COC(=O)N[C@@H](CC(C)C)C(=O)O)[C@H](CC(C)C)CN1CC2` [Compound 5-20, (2S)-2-[({[(2R,3S,11bR)-9,10-dimethoxy-3-(2-methylpropyl)-1H,2H,3H,4H,6H,7H,11bH-pyrido[2,1-a]isoquinolin-2-yl]methoxy}carbonyl)amino]-4-methylpentanoic acid], the Ki [1] is reported as 10 to 500 nM and the “S9 Assay (ability to form compound 1-1)” value [2] is reported as “++”.
With `COc1cc2c(cc1OC)[C@H]1C[C@@H](COC(=O)NC3(C(=O)O)CCCC3)[C@H](CC(C)C)CN1CC2` [Compound 5-39, 1-[({[(2R,3S,11bR)-9,10-dimethoxy-3-(2-methylpropyl)-1H,2H,3H,4H,6H,7H,11bH-pyrido[2,1-a]isoquinolin-2-yl]methoxy}carbonyl)amino]cyclopentane-1-carboxylic acid] the Ki [1] was 10 to 500 nM and the “S9 Assay (ability to form compound 1-1)” value [2] was “+++”.
With `COc1cc2c(cc1OC)[C@H]1C[C@@H](COC(=O)C[C@H]3CCNC3)[C@H](CC(C)C)CN1CC2` [Compound 4-38, [(2R,3S,11bR)-9,10-dimethoxy-3-(2-methylpropyl)-1H,2H,3H,4H,6H,7H,11bH-pyrido[2,1-a]isoquinolin-2-yl]methyl 2-[(3R)-pyrrolidin-3-yl]acetate] the Ki [1] was under 10 nM and the “S9 Assay (ability to form compound 1-1)” value [2] was “+”.
In the case of `COc1cc2c(cc1OC)[C@H]1C[C@@H](COC(=O)CC(C)CC(=O)O)[C@H](CC(C)C)CN1CC2` (stereo partly drawn) [Compound 3-3, 5-{[(2R,3S,11bR)-9,10-dimethoxy-3-(2-methylpropyl)-1H,2H,3H,4H,6H,7H,11bH-pyrido[2,1-a]isoquinolin-2-yl]methoxy}-3-methyl-5-oxopentanoic acid], the Ki [1] is reported as 10 to 500 nM and the “S9 Assay (ability to form compound 1-1)” value [2] is reported as “+++”.
With `COc1cc2c(cc1OC)[C@H]1C[C@@H](COC(=O)NC3C4CCC(C4)C3C(=O)O)[C@H](CC(C)C)CN1CC2` (stereo partly drawn) [Compound 5-40, 3-[({[(2R,3S,11bR)-9,10-dimethoxy-3-(2-methylpropyl)-1H,2H,3H,4H,6H,7H,11bH-pyrido[2,l-a]isoquinolin-2-yl]methoxy}carbonyl)amino]bicyclo[2.2.1]heptane-2-carboxylic acid] the Ki [1] was 10 to 500 nM and the “S9 Assay (ability to form compound 1-1)” value [2] was “+”.
